Reference: patent publication US20240269148A1, “Enhancement of Anti-Angiogenic Cancer Immunotherapy by Abortogenic Agents” (Therapeutic Solutions International, Inc., priority 2023, published 2024)

Assays:
[1] = system: 4T1 cells; assay: 4T1 triple negative breast cancer model in BALB/c mice; format: in vivo
Protocol: Female BALB/c mice were administered 4T1 cells at a concentration of 1 million cells per mouse. VALLOVAX™ at a concentration of 500,000 cells per mouse was administered alone, RU-486 was administered alone (25 μg/g dose) and in combination of RU-486 and VALLOVAX™.

[2] = system: T cell; assay: T cell reactivity in vitro after RU-486 administration (4T1 model); format: cell-based; details: administration of RU-486

CC#C[C@]1(O)CC[C@H]2[C@@H]3CCC4=CC(=O)CCC4=C3[C@@H](c3ccc(N(C)C)cc3)C[C@@]21C [RU-486, mifepristone]
Breast cancer induced myeloid suppressor cells ([1]; administration of RU-486): decreased | Generation of CD8 cells capable of adoptively transferring immunity ([1]; administration of RU-486): enhance | Therapeutic activity of ValloVax ([1]; triple negative breast cancer 4T1 model): enhances | T cell reactivity in vitro [2]: increased
